Results taken from article PMC6070903 (Viruses, 2018).
Converted amounts (≈) assume the structure as drawn.

Legend:
B. cereus ATCC 11778 = experiment: Broth microdilution MIC; assay type: cell-based; settings: Bacillus cereus, ATCC11778, 24 h, 35 ± 2 °C
P. aeruginosa ATCC 27853 = experiment: Broth microdilution MIC; assay type: cell-based; settings: Pseudomonas aeruginosa, ATCC27853, 24 h, 35 ± 2 °C
S. aureus ATCC 29213 = experiment: Broth microdilution MIC; assay type: cell-based; settings: Staphylococcus aureus, ATCC29213, 24 h, 35 ± 2 °C
E. coli ATCC 25922 = experiment: Broth microdilution MIC; assay type: cell-based; settings: Escherichia coli, ATCC25922, 24 h, 35 ± 2 °C
HSV-1 strain KOS = experiment: Anti-HSV-1 plaque reduction assay in Vero cells; assay type: cell-based, Herpes simplex virus; settings: for Selectivity Index CC50/IC50: HSV-1, Vero CC50 / IC50; for IC50: Human alphaherpesvirus 1, HSV-1, plaque reduction, 72 h, Vero cells
C. albicans ATCC 10231 = experiment: Broth microdilution MIC; assay type: cell-based; settings: Candida albicans, ATCC10231, 48 h, 25 ± 2 °C
THP-1 cells [1] = experiment: Pyocyanin-triggered ROS production in THP-1 cells, DCFH-DA; assay type: cell-based, human; settings: 5 μM, pyocyanin 100 μM, THP-1 monocytes
[2] = tested on: Gram-positive bacteria S. aureus and B. cereus; experiment: Broth microdilution MIC, summary for both Gram-positive strains; assay type: cell-based; settings: S. aureus and B. cereus together
in vitro = settings: African green monkey
[3] = tested on: HSV-2 (clinical isolates, acyclovir-sensitive); experiment: Anti-HSV-2 titer reduction assay in Vero cells; assay type: cell-based, Herpes simplex virus; settings: for Selectivity Index CC50/EC50: HSV-2, Vero CC50 / EC50; for EC50: Human alphaherpesvirus 2, HSV-2, titer reduction, 48 h, Vero cells
NF-κB/AP-1 = NF-κB/AP-1 activity, SEAP reporter in LPS-stimulated THP-1-XBlue-MD2-CD14 cells; assay type: cell-based, human; settings: 5 μM, LPS 1 μg/mL, 24 h, vs vehicle
TNF-α = experiment: LPS-stimulated TNF-α secretion in PMA-differentiated THP-1 macrophages, ELISA; assay type: cell-based, human; settings: 5 μM, LPS 1 μg/mL, 24 h
IL-1β = experiment: LPS-stimulated IL-1β secretion in PMA-differentiated THP-1 macrophages, ELISA; assay type: cell-based, human; settings: 5 μM, LPS 1 μg/mL, 24 h
[4] = tested on: HL-60 (promyelocytic leukemia) cells; set-up: method as in earlier work; settings: read-out: IC50 against HL-60 cells; cited from earlier work
THP-1 cells [5] = experiment: Cell viability of THP-1 cells, WST-1 assay; assay type: cell-based; settings: Homo sapiens, WST-1, 24 h, 0.25 to 20 μM, read-out: IC50 for the THP-1 cell line (viability)

MIC (B. cereus ATCC 11778) [µg/mL]	MIC (P. aeruginosa ATCC 27853) [µg/mL]	MIC (S. aureus ATCC 29213) [µg/mL]	MIC (E. coli ATCC 25922) [µg/mL]	IC50 (HSV-1 strain KOS) [µg/mL]	MIC (C. albicans ATCC 10231) [µg/mL]	MIC range against both Gram-positive strains [2] [µg/mL]	EC50 [3] [µg/mL]	IC50 (THP-1 cells [5]) [nM]	SMILES	Selectivity Index CC50/IC50 (HSV-1 strain KOS)	Effect on production of ROS (THP-1 cells [1])	CC50 at 84 h (in vitro) [µg/mL]	Selectivity Index CC50/EC50 [3]	Effect on NF-κB/AP-1 activity (NF-κB/AP-1)	Effect on LPS-stimulated secretion of TNF-α (TNF-α)	Effect on LPS-stimulated secretion of IL-1β (IL-1β)	IC50 [4] [nM]
16 (≈ 63.4 µM)	> 64	16 (≈ 63.4 µM)	> 64	1.23 ± 0.13 (≈ 4.88 µM)	> 64	8 to 32			Cc1c(O)c(C=O)c(O)c(C(=O)CC(C)C)c1O [Compound 2, Grandinol]	>170.7	significantly increased the production of ROS	> 210					
> 128	> 128	> 128	> 128		> 128		0.73 ± 0.11 (≈ 1.4 µM)		Cc1cc(=O)c2c(O)cc(O[C@@H]3O[C@H](COC(=O)C4=CC[C@H](C(C)(C)O)CC4)[C@@H](O)[C@H](O)[C@H]3O)cc2o1 [Compound 5, Cypellocarpin C]			> 210	>287.7				
> 32	> 32	> 32	> 32	0.96 ± 0.12 (≈ 1.52 µM)	> 32				COc1cc(/C=C/C(=O)O[C@H]2CC[C@]3(C)[C@H]4C=C[C@]56OC(=O)[C@@]7(CC[C@@H](C)[C@H](C)[C@H]75)CC[C@@]6(C)[C@]4(C)CC[C@H]3C2(C)C)ccc1O [Compound 12, Tereticornate A]	>218.8		> 210		statistically significant inhibitory potential, stronger than that of prednisone	Neither compound 8 nor 12 showed any influence on the secretion of TNF-α	attenuates the LPS-stimulated secretion of IL-1β	
128 (≈ 429 µM)	> 128	> 128	> 128		> 128				COc1cc2oc(-c3ccc(O)cc3)cc(=O)c2c(O)c1C [Compound 7, 8-Demethylsideroxylin]					enhance it			
8 (≈ 33.6 µM)	> 32	32 (≈ 134 µM)	> 32		> 32	8 to 32			CCC(C)C(=O)c1c(O)cc(OC)c(C)c1O (centres unmarked) [Compound 3, Pulverulentone B]		no significant antioxidant potential						
32 (≈ 68.3 µM)	> 128	> 128	> 128		> 128			1200	C=C(C)C1CCC(=C)C2(O)CCC3(C)C(CC(C)C)c4c(O)c(C=O)c(O)c(C=O)c4OC3C12 (centres unmarked) [Compound 4, Eucalyptal A]								1700
> 64	> 64	> 64	> 64		> 64				COc1ccc(-c2cc(=O)c3c(O)c(C)c(OC)cc3o2)cc1 [Compound 9, 8-Demethyleucalyptin]					reduce the activation of NF-κB/AP-1			

The next lines start with the compound.

SMILES	MIC (B. cereus ATCC 11778) [µg/mL]	MIC (P. aeruginosa ATCC 27853) [µg/mL]	MIC (S. aureus ATCC 29213) [µg/mL]	MIC (E. coli ATCC 25922) [µg/mL]	IC50 (HSV-1 strain KOS) [µg/mL]	MIC (C. albicans ATCC 10231) [µg/mL]	MIC range against both Gram-positive strains [2] [µg/mL]	EC50 [3] [µg/mL]	IC50 (THP-1 cells [5]) [nM]	Selectivity Index CC50/IC50 (HSV-1 strain KOS)	Effect on production of ROS (THP-1 cells [1])	CC50 at 84 h (in vitro) [µg/mL]	Selectivity Index CC50/EC50 [3]	Effect on NF-κB/AP-1 activity (NF-κB/AP-1)	Effect on LPS-stimulated secretion of TNF-α (TNF-α)	Effect on LPS-stimulated secretion of IL-1β (IL-1β)	IC50 [4] [nM]
CN(C)[C@@H]1C(O)=C(C(N)=O)C(=O)[C@@]2(O)C(O)=C3C(=O)c4c(O)cccc4[C@@](C)(O)[C@H]3C[C@@H]12 [tetracycline, reference compound]	0.03 (≈ 0.0675 µM)	16 (≈ 36 µM)	0.125 (≈ 0.281 µM)	1 (≈ 2.25 µM)													
C=C1CC[C@H](C(C)(C)O)/C=C/[C@@H](C)CCC1=O [Compound 1, Litseagermacrane]	64 (≈ 271 µM)	> 64	> 64	> 64		> 64		1.25 ± 0.2 (≈ 5.29 µM)			no significant antioxidant potential	> 210	>168.0				
Nc1nc2c(ncn2COCCO)c(=O)[nH]1 [Acyclovir, acyclovir, reference compound]					1.92 ± 0.23 (≈ 8.53 µM)			1.75 ± 0.33 (≈ 7.77 µM)				> 210					
COc1ccc(-c2cc(=O)c3c(O)c(C)c(OC)c(C)c3o2)cc1 [Compound 8, Eucalyptin]	> 64	> 64	> 64	> 64		> 64									Neither compound 8 nor 12 showed any influence on the secretion of TNF-α	increased the secretion of the IL-1β	
Clc1ccc(C(Cn2ccnc2)OCc2ccsc2Cl)c(Cl)c1 (centres unmarked) [tioconazole, reference compound]						4 (≈ 10.3 µM)											
C[C@H]1[C@H](C)CC[C@]2(C(=O)O)CC[C@]3(C)C(=CC[C@@H]4[C@@]5(C)CC[C@H](O)C(C)(C)[C@@H]5CC[C@]43C)[C@H]12 [Compound 11, Ursolic acid]	32 (≈ 70.1 µM)	> 128	128 (≈ 280 µM)	> 128		> 128											
COc1c(C)c(O)c2c(=O)cc(-c3ccc(O)cc3)oc2c1C [Compound 6, Sideroxylin]	64 (≈ 205 µM)	> 64	> 64	> 64	1.44 ± 0.14 (≈ 4.61 µM)	> 64				>145.8		> 210		enhance it			
c1cc2c(cc1[C@H]1OC[C@H]3[C@@H]1CO[C@@H]3c1ccc3c(c1)OCO3)OCO2 [Compound 10, Sesamin]	> 32	> 32	> 32	> 32		> 32											
